# Data: patent US20230303564A1, “PYRIMIDINE RING COMPOUND” (MEDSHINE DISCOVERY INC., priority 2020, published 2023)
# Columns and labels:
# [1] = system: human ovarian cancer OVCAR-3 cells subcutaneous xenograft tumor; assay: In vivo efficacy study, OVCAR-3 subcutaneous xenograft tumor BALB/c nude mouse model; settings: for Tumor volume (Day 0): Day 0 (at grouping), OVCAR-3 xenograft, BALB/c nude mice; for Tumor volume (Day 7): 10 mg/kg from day 0 to day 7; for Tumor volume (Day 14): 10 mg/kg from day 0 to day 14; for Tumor volume (Day 21): 10 mg/kg day 0 to day 14, 30 mg/kg from day 14 to day 21
# Procedure: In vivo efficacy study of human ovarian cancer OVCAR-3 cells subcutaneous xenograft tumor BALB/c nude mouse model
# Cell culture: Human ovarian cancer OVCAR-3 cells were monolayer cultured in vitro, the culture conditions were 10% fetal bovine serum, 100 U/mL Penicillin and 100 μg/mL Streptomycin were added in RPMI 1640 medium, cultured at 37° C. 5% CO2 incubator. Conventional digestion with trypsin-EDTA was performed for passage. When the cell saturation was 80%/90% and the number reached the required level, the cells were collected, counted, and inoculated.
# Animals: BALB/c nude mice, female, 6-8 weeks old, weighed 18-22 grams. A total of 95 (42+ additional 53) animals were needed, provided by the Experimental Animal Management Department of Shanghai Institute of Family Planning Sciences (formerly Shanghai Sipulbichem).
# Tumor inoculation: 0.2 mL (1×10^7) OVCAR-3 cells (with matrix glue, volume ratio of 1:1) were subcutaneously inoculated on the right back of each mouse, and the mice were grouped administrated when the average tumor volume reached about 150 mm^3.
# Dosage and frequency of administration: Day 0 to Day 7, 10 mg/kg; Day 7 to Day 14, 10 mg/kg; Day 14 to Day 21, 30 mg/kg;
# Experimental index: The experimental index was used to examine whether tumor growth was inhibited, delayed or cured. Tumor diameters were measured with vernier calipers twice a week. The calculation formula of tumor volume was: V=0.5a×b^2, wherein a and b represented the long and short diameters of the tumor, respectively.
# OVCAR-3 cells = assay: Cell activity test, anti-proliferation (CellTiter Glo), OVCAR-3; assay type: cell-based, human; settings: OVCAR-3, 7 days of culture
# Procedure: 2) Day 1: Laying Cell Plates
# (6) 0.7 mL of cell suspension was pipetted into the counting cup, the cells were counted on ViCell XR, and the cell suspension was diluted separately with culture medium to the required cell concentration for laying cell plates: 1000/30 ul.
# (7) Microplates (2 plates) were required, 100 uL of phosphate buffered saline was added to the peripheral wells of the 384-well plate, 30 uL of cell suspension was added to the other wells, and the cell plate was placed into incubator for culture.
# (1) Compound preparation: the stock solution of the compound to be tested was 10 mM.
# (2) The compound to be tested was diluted 3 times with DMSO for 10 gradients.
# (2) The compound to be tested was diluted with culture medium, and the highest final concentration was 10 μM.
# (4) 10 μL of the compound was pipetted into the 384-well plate, and then the cell plate was placed back into the incubator for culture.
# 4) Adding CTG and Reading the Plate
# (1) After 7 days of culture, 50 ul CellTiter Glo was added to the cell plate, shaken for 10 minutes in the dark, and left at room temperature for 5 minutes.
# (2) The plate was read on Envision with the program: US LUM 384 (CPS). The experiment was originally stored in the personal disk:
# 1. The mean and standard deviation of 0% inhibition (DMSO row, ZPE) and 100% inhibition (PBS row, HPE) were calculated;
# 2. Inhibition rate (%)=(1−(sample value-average value of 100% inhibition)/(average value of 0% inhibition-average value of 100% inhibition))*100;
# 3. The curve was fitted by GraphPad 8.0 software;
# CDK9/CyclinT1 = CDK9/CyclinT1 (Homo sapiens (Human), UniProt P50750); assay: CDK9/CyclinT1 enzyme activity test (ADP-Glo); assay type: biochemical; settings: 100 μM ATP, 25° C. 120 minutes, read-out: CDK 9/Cyclin T1 IC50
# CDK9/CyclinT1, sequence (P50750 whole entry): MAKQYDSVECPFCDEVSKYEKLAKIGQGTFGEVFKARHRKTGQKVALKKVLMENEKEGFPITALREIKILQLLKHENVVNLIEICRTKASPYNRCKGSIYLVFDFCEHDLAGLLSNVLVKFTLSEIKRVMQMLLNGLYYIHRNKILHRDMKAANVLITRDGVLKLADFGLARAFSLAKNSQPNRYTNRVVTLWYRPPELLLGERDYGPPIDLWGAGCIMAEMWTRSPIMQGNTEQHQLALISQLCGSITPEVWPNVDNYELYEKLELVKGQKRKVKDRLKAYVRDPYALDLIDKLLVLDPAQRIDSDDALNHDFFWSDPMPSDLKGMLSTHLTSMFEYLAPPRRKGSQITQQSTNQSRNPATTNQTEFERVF
# CDK9/CyclinT1, sequence (O60563 whole entry partner): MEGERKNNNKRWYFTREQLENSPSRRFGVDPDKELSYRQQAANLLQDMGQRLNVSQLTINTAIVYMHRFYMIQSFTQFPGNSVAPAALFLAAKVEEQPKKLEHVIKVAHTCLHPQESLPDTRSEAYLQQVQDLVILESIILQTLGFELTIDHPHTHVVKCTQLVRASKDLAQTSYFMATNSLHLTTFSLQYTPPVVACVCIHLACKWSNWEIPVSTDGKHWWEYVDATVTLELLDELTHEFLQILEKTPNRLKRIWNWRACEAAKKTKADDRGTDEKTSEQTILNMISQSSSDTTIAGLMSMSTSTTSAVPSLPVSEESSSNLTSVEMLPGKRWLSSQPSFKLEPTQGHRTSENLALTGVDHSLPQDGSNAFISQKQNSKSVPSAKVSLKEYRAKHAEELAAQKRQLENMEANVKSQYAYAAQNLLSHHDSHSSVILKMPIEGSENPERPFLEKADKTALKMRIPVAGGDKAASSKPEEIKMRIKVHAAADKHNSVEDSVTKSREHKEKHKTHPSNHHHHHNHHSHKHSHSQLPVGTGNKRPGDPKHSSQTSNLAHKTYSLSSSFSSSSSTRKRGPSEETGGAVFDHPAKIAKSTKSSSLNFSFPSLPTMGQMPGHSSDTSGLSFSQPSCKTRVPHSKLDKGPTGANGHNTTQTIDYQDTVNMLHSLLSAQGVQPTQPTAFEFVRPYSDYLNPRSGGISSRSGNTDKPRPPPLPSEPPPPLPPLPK
# Procedure: CDK9/CyclinT1 Enzyme Reaction System
# (§1) Enzymes, substrates, ATP, and inhibitors were diluted by kinase buffer in the kit. The compounds to be tested were diluted 5-fold with a multi-channel pipette to the eighth concentration, that is, from 50 μM to 0.65 nM, the concentration of DMSO was 5%, and a double-hole experiment was set up. 1 μL of each concentration gradient of inhibitors, 2 μL of CDK9/CyclinT1 enzyme (4 ng), 2 μL mixture of substrate and ATP (100 μM ATP, 0.2 μg/μL substrate) were added to the microplates, and the final concentration gradient of the compound was 10 μM to 0.13 nM. The reaction system was reacted at 25° C. for 120 minutes. After the reaction, 5 μL of ADP-Glo reagent was added to each well, the reaction was carried out at 25° C. for 40 minutes, after the reaction was completed, 10 μL of kinase detection reagent was added to each well, the reaction was carried out at 25° C. for 30 minutes, the multiple label analyzer was used to read the chemiluminescence with an integration time of 0.5 seconds.
# (§2) The equation (Sample−Min)/(Max−Min)*100% was used to convert the raw data into inhibition rate, and the value of IC50 can be obtained by curve fitting with four parameters (obtained by log (inhibitor) vs. response-Variable slope mode in GraphPad Prism). The enzymatic inhibitory activity of the compounds of the present disclosure on CDK1/CyclinB1, CDK2/CyclinA2, CDK2/CyclinE1, CDK4/CyclinD1, CDK6/CyclinD1, CDK7/CyclinH/MAT1, CDK9/CyclinT1 was provided in Table 1.
# CDK2/CyclinE1 = CDK2/CyclinE1 (Homo sapiens (Human), UniProt P24941); assay: CDK2/CyclinE1 enzyme activity test (ADP-Glo); assay type: biochemical; settings: 150 μM ATP, 25° C. 60 minutes, read-out: CDK2/Cyclin E1 IC50
# Procedure: CDK2/CyclinE1 Enzyme Reaction System
# as §1, with “CDK2/CyclinE1” for “CDK9/CyclinT1”, “(2” for “(4”, “(150” for “(100”, “0.1” for “0.2”, “60” for “120”
# as §2
SMILES,Tumor volume (Day 0) [1],Tumor volume (Day 7) [1],Tumor volume (Day 14) [1],Tumor volume (Day 21) [1],IC50 (OVCAR-3 cells),IC50 (CDK9/CyclinT1),IC50 (CDK2/CyclinE1)
Cn1cc(Cl)c(Nc2nc(C(F)F)cc3cnc(NC4CCN(S(C)(=O)=O)CC4)nc23)n1 [Compound 20],151 mm^3,236 mm^3,338 mm^3,363 mm^3,12 nM,106 nM,1.33 nM
"CS(=O)(=O)N1CCC(Nc2ncc3cc(C(F)F)nc(N[C@@H]4CCCC4(F)F)c3n2)CC1 (single isomer, unassigned) [Compound 22]",151 mm^3,243 mm^3,319 mm^3,238 mm^3,44 nM,36.9 nM,3.52 nM
Cc1cn(C)nc1Nc1nc(C(F)F)cc2cnc(NC3CCN(S(C)(=O)=O)CC3)nc12 [Compound 19],151 mm^3,246 mm^3,375 mm^3,392 mm^3,29 nM,178 nM,4.73 nM
